The values that follow come from patent publication US5817651A, “3-arylcarbonyl-1-(C-attached-N-heteryl)-1H-indoles” (Sanofi, priority 1997, dated 1998).

What is called ED50 is the midpoint of the dose-response relation.

Test [1] deals with acetylcholine-induced abdominal constriction. Nature of the test: acetylcholine-induced abdominal constriction test (ACH). It counts as in vivo. As to conditions: mice; for inhibition in vivo at 100 mg/kg / ED50: Mus musculus; for inhibition in vivo at 100 mg/kg: dose level 100, read-out: ACH percent inhibition at dose 100. The source says:
J. Pharmacol. Chemotherap. 32, 295 (1968); a modification of the anti-bradykinin test, which is also a primary analgesic screening procedure, described by Berkowitz et al., J. Pharmacol. Exptl. Therap. 177, 500-508 (1971), Blane et al., J. Pharm. Pharmacol. 19, 367-373 (1967), Botha et al., Eur. J. Pharmacol. 6, 312-321 (1969) and Deffenu et al., J. Pharm. Pharmacol. 18, 135 (1966); and the Randall-Selitto analgesic test described by Randall and Selitto, Arch. Int. Pharmacodyn., 111, 409-419 (1957).
Data in the developing adjuvant arthritis (AA) and plasma fibronectin (FN) assays are expressed as percent inhibition, i.e. inhibition of non-injected paw inflammation (NIP) and injected paw (RPV) and lowering of plasma fibronectin, the asterisks * and ** indicating statistical significance at the p<0.01 and p<0.05 levels, respectively. […] Non-statistically significant results are recorded as "------ ". In the acetylcholine-induced abdominal constriction test, the test compounds were administered either as suspensions in gum tragacanth (GT) or as aqueous solutions prepared by addition of just sufficient dilute aqueous methanesulfonic acid (MS) or dilute aqueous lactic acid (LA) to dissolve the compound. The compounds are identified by the example number above where their preparations are described. All data in the anti-bradykinin, rat writhing and Randall-Selitto tests were obtained on oral administration.

In test [2] the test system is adjuvant induced arthritis. The test can be described thus: developing adjuvant arthritis (AA) assay. As to conditions: arthritic rats; printed * = p<0.01, ** = p<0.05. The class given is in vivo. Also on record: key: Non-statistically significant results are recorded as "------ ". As for the experimental part: Antirheumatic and anti-inflammatory activities of the compounds of the invention were determined using the developing adjuvant arthritis assay in rats and the plasma fibronectin assay in arthritic rats. The developing adjuvant arthritis assay was used in conjunction with the plasma fibronectin assay as a primary screening method in the evaluation of compounds for potential use as disease modifying anti-rheumatic drugs. The procedure used to induce arthritis in rats is a modification of the methods published by Pearson, J. Chron. Dis. 16, 863-874 (1973) and by Glenn et al., Amer. J. Vet. Res. 1180-1193 (1965). Adjuvant induced arthritis bears many of the traits of rheumatoid arthritis. It is a chronic, progressive, deforming arthritis of the peripheral joints, with a primary mononuclear cell response consisting of bone and joint space invasion by pannus. In order to detect disease modifying anti-rheumatic drug activity, drug treatment is started before the disease has become irrevocably established. Since such drugs are not designed to be administered prophylactically, drug treatment of adjuvant arthritis is initiated at a time when the disease is developing but is not yet irreversible. Animals develop significant systemic arthritic disease which can be measured by swelling of the non-injected rear paw (NIP) 15 to 20 days following an initial injection on day 1 of complete Freund's adjuvant into the right hindfoot paw.
Data in the developing adjuvant arthritis (AA) and plasma fibronectin (FN) assays are expressed as percent inhibition, i.e. inhibition of non-injected paw inflammation (NIP) and injected paw (RPV) and lowering of plasma fibronectin, the asterisks * and ** indicating statistical significance at the p<0.01 and p<0.05 levels, respectively. Compounds are considered active at p<0.05 level. Non-statistically significant results are recorded as "------ ". In the acetylcholine-induced abdominal constriction test, the test compounds were administered either as suspensions in gum tragacanth (GT) or as aqueous solutions prepared by addition of just sufficient dilute aqueous methanesulfonic acid (MS) or dilute aqueous lactic acid (LA) to dissolve the compound. The compounds are identified by the example number above where their preparations are described. All data in the anti-bradykinin, rat writhing and Randall-Selitto tests were obtained on oral administration.

[3] abbreviates: Table 9, Examples, no route marked in the cell, read-out: ACH ED50.

The structures appear in SMILES notation. Structures can show the parent of a compound that is named as a salt. Where two headings read alike, the source gives them in different places.

Regarding `Cc1cc2ccccc2n1CC1CN(C)CCO1` (racemic) [Preparation 1A, 1-[(4-methyl-2-morpholinyl)methyl]-2-methyl-1H-indole], the inhibition in vivo at 100 mg/kg in test [1] (Table 10, Prepn. No.) came to 10%.
In the case of `Cc1c(C(=O)c2ccccc2F)c2ccccc2n1C[C@@H]1CC[C@@H](C)N1C` (relative stereo) [Example 1AD], in test [1] (setting [3]), the ED50 was determined as 34 mg/kg.
In the case of `COc1ccc(C(=O)c2c(C)n(C[C@@H]3CC[C@@H](C)N3Cc3ccccc3)c3ccccc23)cc1` (relative stereo) [Example 1AE], the inhibition in vivo at 100 mg/kg in test [1] (Table 9) is 30%.
As to `COc1ccc(C(=O)c2c(C)n(C3CCCN(C)C3)c3ccccc23)cc1` (centres unmarked) [2AG(b)], the ED50 in test [1] (setting [3]) amounted to 30 mg/kg.
Take `COc1ccc(C(=O)c2c(C)n(CC3CCCN3Cc3ccccc3)c3ccccc23)cc1` (centres unmarked) [Example 1AG]: the inhibition in vivo at 100 mg/kg in test [1] (Table 9) worked out at 0%.
With `COc1ccc(C(=O)c2c(C)n(C3CCN(C)CC3)c3ccccc23)cc1` [Example 1B], the ED50 in test [1] (setting [3]) was determined as 69 mg/kg. In addition, in test [2], the “NIP: percent inhibition of non-injected paw inflammation” value is on record as 88% and the “RPV: percent inhibition of injected paw” value was found to be 65%.
Take `Cc1c(C(=O)c2ccc(O)cc2)c2ccccc2n1CC1CN(C)CCO1` (centres unmarked) [Example 1D]: in test [1] (Table 9), the inhibition in vivo at 100 mg/kg came out at 10%.
As to `COc1ccc(C(=O)c2cn(CC3CCCN(C)C3)c3ccc(F)cc23)cc1` (centres unmarked) [Example 1H], the inhibition in vivo at 100 mg/kg in test [1] (Table 9) stood at 20%. In test [2], the “NIP: percent inhibition of non-injected paw inflammation” value was 92% and the “RPV: percent inhibition of injected paw” value is on record as 63%.
Consider `Cc1c(C(=O)c2ccc(Cl)cc2)c2ccccc2n1CC1CCCN(C)C1` (centres unmarked) [Example 1L], for which, in test [1] (setting [3]), the ED50 stood at 62 mg/kg. Also, in test [2], the “NIP: percent inhibition of non-injected paw inflammation” value is on record as 83% and the “RPV: percent inhibition of injected paw” value is on record as 60%.
For the compound `Cc1c(C(=O)c2cccc(F)c2)c2ccccc2n1CC1CCCN(C)C1` (centres unmarked) [Example 1O], the ED50 in test [1] (setting [3]) was found to be 71 mg/kg.
Still for that read-out and setting: the same measure for `CN1CCCC(Cn2cc(C(=O)c3ccccc3)c3ccccc32)C1` (centres unmarked) [Example 1Q]: 45 mg/kg.
With `CN1CCCCC(n2cc(C(=O)c3cccc4ccccc34)c3ccccc32)C1` (centres unmarked) [Example 1R], the inhibition in vivo at 100 mg/kg in test [1] (Table 9) turned out to be 20%.
Regarding `COc1ccc(C(=O)c2c(C(C)C)n(CC3CCCN(C)C3)c3ccc(F)cc23)cc1` (centres unmarked) [Example 1S], in test [1] (setting [3]), the ED50 is 21 mg/kg. Moreover, in test [2], the “NIP: percent inhibition of non-injected paw inflammation” value is 73% and the “RPV: percent inhibition of injected paw” value stood at 36%.
Turning to `COc1cccc(C(=O)c2c(C)n(CC3CCCN(C)C3)c3ccccc23)c1` (centres unmarked) [Example 1T], in test [1] (setting [3]), the ED50 worked out at 64 mg/kg.
Same read-out and setting: the same measure for `COc1ccc(C(=O)c2c(C(C)C)n(CC3CCCN(C)C3)c3ccccc23)cc1` (centres unmarked) [Example 1U]: 22 mg/kg.
Regarding `COc1ccc(C(=O)c2c(C)n(C3CCN(Cc4ccccc4)C3)c3ccccc23)cc1` (centres unmarked) [Example 1W], in test [1] (Table 9), the inhibition in vivo at 100 mg/kg was determined as 35%.
On to `COc1ccc(C(=O)c2c(C)n(CCC3CCCN3C)c3ccc(F)cc23)cc1` (centres unmarked) [Example 2A, 5-fluoro-2-methyl-1-[2-(1-methyl-2-pyrrolidinyl)ethyl]-3-(4-methoxybenzoyl)-1H-indole hydrochloride hemihydrate], for which the ED50 in test [1] (setting [3]) was 32 mg/kg. In test [2], the “NIP: percent inhibition of non-injected paw inflammation” value stood at 86% and the “RPV: percent inhibition of injected paw” value is recorded as 69%.
Take `CN1CCCC(Cn2cc(C(=O)c3ccccc3F)c3ccccc32)C1` (centres unmarked) [Example 2AA]: in test [1] (setting [3]), the ED50 was 65 mg/kg.
Take `CN1CCCCC(n2cc(C(=O)c3ccccc3F)c3ccccc32)C1` (centres unmarked) [Example 2AD]: the inhibition in vivo at 100 mg/kg in test [1] (Table 9) worked out at 20%.
On the same count and under the same terms, to `COc1ccc(C(=O)c2c(C)n(CC3CN(C(c4ccccc4)c4ccccc4)C3)c3ccccc23)cc1` [Example 2AL] belongs 20%.
Same read-out and setting: the same measure for `Cc1c(C(=O)c2ccc([N+](=O)[O-])cc2)c2ccccc2n1CC1CCCN(C)C1` (centres unmarked) [Example 2AN]: 30%.
As for `COc1ccc(C(=O)c2cn(CCC3CCCN3C)c3ccc(F)cc23)cc1` (centres unmarked) [Example 2C], in test [1] (setting [3]), the ED50 is 49 mg/kg. In test [2], the “NIP: percent inhibition of non-injected paw inflammation” value came out at 55% and the “RPV: percent inhibition of injected paw” value was found to be 27%.
Regarding `CCc1ccc(C(=O)c2c(C)n(CC3CCCN(C)C3)c3ccccc23)cc1` (centres unmarked) [Example 2N], in test [1] (setting [3]), the 50% effective dose (ED50) was 46 mg/kg.
For the compound `COc1ccc(C(=O)c2cn(CCC3CCCN3C)c3ccccc23)cc1` (centres unmarked) [Example 2S], the 50% effective dose (ED50) in test [1] (setting [3]) was found to be 50 mg/kg. Moreover, in test [2], the “NIP: percent inhibition of non-injected paw inflammation” value stood at 33% and the “RPV: percent inhibition of injected paw” value is recorded as 21%.
For `COc1ccc(C(=O)c2c(C)n(CC3CCCN(Cc4ccccc4)C3)c3ccccc23)cc1` (centres unmarked) [Example 2T], the “ACH percent inhibition at dose 300” value in test [1] (Table 9, dose level 300) was determined as 20%. In test [2], the “NIP: percent inhibition of non-injected paw inflammation” value is reported as 92% and the “RPV: percent inhibition of injected paw” value amounted to 68%.
Consider `CCN1CCCC1Cn1c(C)c(C(=O)c2ccc(OC)cc2)c2ccccc21` (centres unmarked) [Example 2Y], for which the 50% effective dose (ED50) in test [1] (setting [3]) was determined as 43 mg/kg. In test [2], the “NIP: percent inhibition of non-injected paw inflammation” value was found to be 46% and the “RPV: percent inhibition of injected paw” value is recorded as 15%.
For `COc1ccc(C(=O)c2c(C)n(C3CSCCN(C)C3)c3ccccc23)cc1` (centres unmarked) [Example 3B], the inhibition in vivo at 100 mg/kg in test [1] (Table 9) was determined as 60%.
In the case of `COc1ccc(C(=O)c2c(C)n(CC3CN(C)CCS3)c3ccccc23)cc1` (centres unmarked) [Example 3C], the median effective dose (ED50) in test [1] (setting [3]) was 30 mg/kg.
On to `CN1CCCC(n2cc(C(=O)c3ccccc3F)c3ccccc32)C1` (centres unmarked) [Example 4D], for which the “ACH percent inhibition at dose 10” value in test [1] (Table 9, dose level 10) came to 65%. Besides, the “ACH percent inhibition at dose 30” value in test [1] (Table 9, dose level 30) is on record as 50%. Besides, in test [2], the “NIP: percent inhibition of non-injected paw inflammation” value stood at 80% and the “RPV: percent inhibition of injected paw” value is “--”.
Turning to `CC(C1CCCNC1)n1cc(C(=O)c2ccccc2F)c2ccccc21` (centres unmarked) [Example 4E], the ED50 in test [1] (setting [3]) amounted to 43 mg/kg.
Same read-out and setting: the same measure for `COc1ccc(C(=O)c2c(C)n(CC3C[S+]([O-])CCN3C)c3ccccc23)cc1` (centres unmarked) [Example 6B, 2-methyl-3-(4-methoxybenzoyl)-1-[(4-methyl-3-thiomorpholinyl)methyl]-1H-indole-S-oxide]: 5 mg/kg.
Same read-out and setting: the same measure for `CCCN1CCCC(Cn2c(C)c(C(=O)c3ccc(OC)cc3)c3ccccc32)C1` (centres unmarked) [Example 7, 2-methyl-3-(4-methoxybenzoyl)-1-[(1-propyl-3-piperidinyl)methyl]-1H-indolehydrochloride]: 18 mg/kg; for `COc1ccc(C(=O)c2c(C)n(C3CCNC3)c3ccccc23)cc1` (centres unmarked) [Example 8B]: 29 mg/kg.
The same measure, in the same setting: the same measure for `COc1ccc(C(=O)c2c(C)n(CC3COCCN3C)c3ccccc23)cc1` (centres unmarked) [Example 10B, 2-methyl-3-(4-methoxybenzoyl)-1-[(4-methyl-3-morpholinyl)methyl]-1H-indole]: 29 mg/kg.
Take `CN1CCCC(Cn2ccc3cc(F)ccc32)C1` (centres unmarked) [Preparation 1D, 1-[(1-methyl-3-piperidinyl)methyl]-5-fluoro-1H-indole]: in test [1] (Table 10, Prepn. No. (intermediates of formula II), no route marked, read-out: ACH ED50), the ED50 stood at 65 mg/kg.
On to `Cc1cc2ccccc2n1CC1CCCN(C)C1.Cl` (centres unmarked) [Preparation 1P, 2-methyl-1-[(1-methyl-3-piperidinyl)methyl]-1H-indole hydrochloride], for which the median effective dose (ED50) in test [1] (iv, Table 10, Prepn. No., i.v., read-out: ACH ED50 (i.v.)) was 9.7 mg/kg; in test [1] (po, Table 10, Prepn. No., p.o., read-out: ACH ED50 (p.o.)), 66 mg/kg.
On to `Cc1cc2ccccc2n1CCC1CCCCN1C` (centres unmarked) [Preparation 1Q, 2-methyl-1-[2-(1-methyl-2-piperidinyl)-ethyl]-1H-indole], for which, in test [1] (Table 10, Prepn. No.), the inhibition in vivo at 100 mg/kg came to 30%.
